Assay results from paper PMC9181938, “Fluorinated Analogues of Lepidilines A and C: Synthesis and Screening of Their Anticancer and Antiviral Activity” (Molecules, 2022).
Where two headings read alike, the source gives them in different places.

What was measured:
[1] = Cytotoxicity MTT assay (0.1–1000 µM), CC50; format: cell-based, Human; details: human, HeLa cells
[2] = Cytotoxicity MTT assay (0.1–1000 µM), CC50; format: cell-based, Macaca mulatta; details: Macaca mulatta, LLC-MK2 cells
[3] = Cytotoxicity screening at 10 µM (MTT); format: cell-based, Cercopithecus aethiops; details: Cercopithecus aethiops, Vero cells, read-out: Cell line (viability %) Vero
[4] = Cytotoxicity screening at 10 µM (MTT); format: cell-based, Human; details: human, MRC-5 cells, read-out: Cell line (viability %) MRC-5
[5] = Cytotoxicity screening at 10 µM (MTT); format: cell-based, Human; details: human, HeLa cells, read-out: Cell line (viability %) HeLa
[6] = Cytotoxicity screening at 10 µM (MTT); format: cell-based, Macaca mulatta; details: Macaca mulatta, LLC-MK2 cells, read-out: Cell line (viability %) LLC-MK2
[7] = tested on: Human herpesvirus 5 (HCMV); test: Antiviral screening at 10 µM, plaque reduction; format: cell-based; details: Human betaherpesvirus 5, antiviral screening, HCMV-infected cells, read-out: Cell line (viability %) HCMV
Procedure: Antiviral properties of compounds 1a, 1c, 1a[PF6], 1c[PF6], 9b[PF6], 9c[PF6], 10a–10d, 2a, and 2b were assessed against five viruses: Human herpesvirus 1 (HSV-1, VR-539), Human parainfluenza virus type 3 (HPIV-3, VR-93), Human adenovirus 5 (AdV5, VR-5), Human herpesvirus 5 (HCMV, VR-977), and Encephalomyocarditis virus (EMCV, VR-1479). Viruses were purchased from the American Type Culture Collection (ATCC, Manassas, VA, USA).
All tested compounds were dissolved in DMSO (dimethyl sulfoxide, Sigma-Aldrich, Darmstadt, Germany) and then suspended in Minimum Essential Medium (MEM; Sigma-Aldrich, Darmstadt, Germany) supplemented with 2% heat-inactivated fetal bovine serum (FBS; Sigma-Aldrich, Darmstadt, Germany), 2 mM L-glutamine (Sigma-Aldrich, Darmstadt, Germany), and 100 units/mL penicillin G with […] streptomycin (Sigma-Aldrich, Darmstadt, Germany).
Vero, LLC-MK2, NCTC clone 929, MRC-5, and HeLa cells were propagated in Minimum Essential Medium (MEM; Sigma-Aldrich, Darmstadt, Germany) supplemented with 10% heat-inactivated fetal bovine serum (FBS; Sigma-Aldrich, Darmstadt, Germany) and 100 units/mL penicillin G with […] streptomycin (Sigma-Aldrich, Darmstadt, Germany). Upon reaching 80–90% confluency, cells were harvested with 0.25% trypsin in 1 mM EDTA (Life Technologies, Warsaw, Poland) and seeded onto 96-well microplates at 2 × 10^5 cells/mL. After overnight incubation of cells at 37 °C in a humidified atmosphere containing 5% CO2, the culture medium was removed, and cells were inoculated with the respective virus solution in MEM supplemented with 2% FBS and antibiotics (HSV-1 MOI 0.005, 1000 virions/mL; HPIV-3 MOI 0.01, 2000 virions/mL; AdV5 MOI 0.005, 1000 virions/mL, EMCV MOI 0.005, 1000 virions/mL, HCMV 20 PFU (plaque forming units) per well). After a 1-h (HSV-1, HPIV-3, AdV5, and EMCV) or 2-h adsorption period (HCMV), the residual virus was removed, and the infected cells were further incubated with a 100 μL freshly prepared solution of tested compounds diluted with a maintenance medium supplemented with 2% FBS to obtain compound concentrations of 10 µM. The final concentration of DMSO in the medium was 0.1%. All experiments were carried out in triplicate. The cells monolayers were incubated with the compounds at 37 °C in a humidified atmosphere containing 5% CO2 until the typical cytopathic effect (CPE) was visible. Viral infection was evaluated by the MTT assay or plaque reduction assay (HCMV). After incubation with drugs, the cells were treated with 3-(4,5-dimethylthiazol-2-yl)-2,5-diphenyltetrazolium bromide dye solution (MTT, Sigma-Aldrich, Darmstadt, Germany) (25 μL, 5 mg/mL) for 2 h and lysed with solvent solution (100 μL) containing: DMF (Sigma-Aldrich, Darmstadt, Germany) (45 mL), SDS (Sigma-Aldrich, Darmstadt, Germany) (13.5 g), and distilled water (55 mL). After overnight incubation at 37 °C, the optical density at 550 nm and a reference wavelength of 670 nm were measured on a microplate spectrophotometer, Varioskan Lux (Thermo Fisher Scientific, Waltham, MA, USA). The number of HCMV plaques was counted under an inverted microscope Olympus IX73 (Olympus, Tokyo, Japan).

[8] = tested on: Human herpesvirus 1 (HSV-1); test: Antiviral screening at 10 µM; format: cell-based; details: Human alphaherpesvirus 1, antiviral screening, HSV-1-infected cells, read-out: Cell line (viability %) HSV-1
Outline: (§1)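 Infected Vero, LLC-MK2, NCTC 929 or HeLa cell monolayers (MOI 0.005; HPIV-3 MOI 0.01) were treated after 1-h adsorption with compounds at 10 µM (0.1% DMSO). Cultures were incubated at 37 °C until cytopathic effect was visible. Viral infection was scored by MTT assay (OD 550/670 nm), in triplicate.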

[9] = tested on: Human parainfluenza virus type 3 (HPIV-3); test: Antiviral screening at 10 µM; format: cell-based; details: Human respirovirus 3, antiviral screening, HPIV-3-infected cells, read-out: Cell line (viability %) HPIV-3
Outline: as §1

[10] = tested on: Encephalomyocarditis virus (EMCV); test: Antiviral screening at 10 µM; format: cell-based; details: Cardiovirus A, EMCV-infected cells, read-out: Cell line (viability %) EMCV
Outline: as §1

[11] = tested on: Human adenovirus 5 (AdV5); test: Antiviral screening at 10 µM; format: cell-based; details: Human mastadenovirus C, AdV5-infected cells, read-out: Cell line (viability %) AdV5
Outline: as §1

Cc1c(C)n(Cc2ccccc2)c(=S)n1Cc1ccccc1 [Compound 10a] showed a CC50 at 48 h ([1]; MTT, 48 h, read-out: CC50 Cancer Cell Lines HeLa) of less than 20 µM, a CC50 at 48 h ([1]; Table S2, range 0.1-1000 µM, read-out: Cell line (CC50 M) HeLa) of 16.9 ± 2.19 µM and a CC50 at 48 h ([2]; LLC-MK2, MTT, 48 h, read-out: CC50 Normal Cell Lines LLC-MK2) of less than 20 µM. The CC50 at 48 h ([2]; Table S2, range 0.1-1000 µM, LLC-MK2, read-out: Cell line (CC50 M) LLC-MK2) was 16.2 ± 3.75 µM, the viability at 48 h, 10 µM [3] was 83.8% and the viability at 48 h, 10 µM [4] was 74.3%. The viability at 48 h, 10 µM [5] was 61.1%, the viability at 48 h, 10 µM [6] was 64.9% and the viability at 10 µM [7] was 3.6%. It also gave a viability at 10 µM [8] of 29.7%, a viability at 10 µM [9] of 69.2% and a viability at 10 µM [10] of 79.6%. It also gave a viability at 10 µM [11] of 62%.
